Measurements published in EPA's ToxValDB 9.5.
Several values for one entry are separate records, joined by “and”; a condition that tells them apart may be missing. Equal entries are not always repeated.

What was measured:
Mus musculus = conditions: oral
[1] = developmental, duration: 17 days, F, CD1, Developmental: 323% increased prenatal loss, 16.7% decreased live fetuses, 24.3% decreased neonatal survival
[2] = developmental, duration: 17 days, F, Developmental: Significantly reduced pup survival (46%) from birth to weaning
[3] = reproduction developmental, duration: 17 days, M, CD1, Body Weight: 32% reduced weight gain during pregnancy
[4] = short-term, duration: 14 days, M, CD1, 6-12% decreased in body weight gain
[5] = short-term, duration: 15 days, F, Body Weight: Weight loss (~5%)
[6] = short-term, duration: 15 days, F, Immunotoxicological: Reduced sRBC-specific response to IgM antibody titers
[7] = short-term, duration: 21 days, M, ICR, Body Weight: 17% decrease in weight gain
[8] = short-term, duration: 21 days, M, ICR, Hepatic: 27% increase in relative liver weight at ?0.5 mg/kg/day / increases in ALT at ?[…] / hepatocytomegaly at 18 mg/kg/day / necrosis…
[9] = short-term, duration: 28 days, M, CD1, Hepatic: Mild hepatocellular hypertrophy at ?0.29, moderate to severe hypertrophy and single cell necrosis at ?0.96 mg/kg/day / decreased …
[10] = acute, duration: 1 days, injection, intraperitoneal, M, Sprague-Dawley, anti-edema effect (reduction in paw edema)
[11] = chronic, duration: 2 years, oral, diet, F, Sprague-Dawley, blood: eosinophils (18 months)
[12] = short-term, duration: 14 days, oral, gavage, M, Crj:CD, red blood cell count
[13] = short-term, duration: 14 days, oral, gavage, M, Crj:CD, white blood cell count
[14] = subchronic, duration: 90 days, oral, diet, M, blood: leukocytes (3 months)
[15] = subchronic, duration: 90 days, oral, diet, M, blood: monocytes (1 month)

## O=C([O-])C(F)(F)C(F)(F)C(F)(F)C(F)(F)C(F)(F)C(F)(F)C(F)(F)F.[NH4+] [Ammonium perfluorooctanoate]
Mus musculus; developmental, duration: 1 days, M, CD1, Developmental: Decreased spontaneous activity and altered response to cholinergic stimulant
  LOAEL: 0.58 mg/kg-day
Mus musculus; developmental, duration: 10 days, F, CD1, Developmental: Altered mammary gland development in female pups / reduced pup weight on PND 20
  LOAEL: 5 mg/kg-day
Mus musculus; developmental, duration: 10 days, F, CD1, Developmental: Delayed mammary gland development (30-60%) in female pups on PNDs 1-10 + Reproductive: Immature mammary gland morphology in …
  LOAEL: 5 mg/kg-day
Mus musculus; developmental, duration: 10 days, F, CD1, Hepatic: 40-120% increased relative liver weight in lactating dams on PNDs 1-10
  NOAEL: 5 mg/kg-day
Mus musculus; developmental, duration: 11 days, F, CD1, Developmental: Delayed mammary gland development (31-47%) in female pups on PNDs 22-32 and at 18 months
  LOAEL: 5 mg/kg-day
Mus musculus; developmental, duration: 11 days, F, CD1, Developmental: Reduced pup body weight at weaning, 43% in males and 35% in females
  LOAEL: 5 mg/kg-day
Mus musculus; developmental, duration: 12 days, F
  NOAEL: 1 mg/kg-day
Mus musculus; developmental, duration: 12 days, F, Developmental: 7-10% decrease in litter weight on PND 2
  LOAEL: 0.5 mg/kg-day
Mus musculus; developmental, duration: 17 days, F
  NOAEL: 10 mg/kg-day
Mus musculus; developmental, duration: 17 days, F, CD1, Developmental: 3 mg/kg/day: reduced weight gain through lactation (14.8% in males and 20.6% in females) / delayed eye opening and hair …
  LOAEL: 3 mg/kg-day and 5 mg/kg-day
Mus musculus; [1]
  LOAEL: 5 mg/kg-day
  NOAEL: 1 mg/kg-day
Mus musculus; developmental, duration: 17 days, F, CD1, Developmental: Decreased birth weight (approximately 8%) and body weight at weaning (24%)
  LOAEL: 5 mg/kg-day
Mus musculus; developmental, duration: 17 days, F, CD1, Developmental: Delayed mammary gland development in female pups on PNDs 22-63 + Reproductive: Delayed mammary gland lactational …
  LOAEL: 0.0024 mg/kg-day
Mus musculus; developmental, duration: 17 days, F, CD1, Developmental: Delayed mammary gland development in female pups on PNDs 22-63 and at 18 months
  LOAEL: 3 mg/kg-day
Mus musculus; developmental, duration: 17 days, F, CD1, Developmental: Increased prenatal loss / 40% reduced neonatal body weight on PNDs 5 and 10
  LOAEL: 5 mg/kg-day
Mus musculus; developmental, duration: 17 days, F, CD1, Reproductive: Delayed mammary gland differentiation
  LOAEL: 5 mg/kg-day
Mus musculus; [2]
  LOAEL: 0.6 mg/kg-day
  NOAEL: 0.3 mg/kg-day
Mus musculus; reproduction developmental, duration: 11 days, F, CD1, Body Weight: No alterations in dams dosed on GDs 15-17 + Hepatic: Increase in relative liver weight in dams dosed on GDs 13-17, 10-17, or 7-…
  NOAEL: 20 mg/kg-day
Mus musculus; reproduction developmental, duration: 17 days, F, CD1, Hepatic: Significant increase in relative and absolute maternal liver weight on PND 22 at ?3 mg/kg/day
  NOAEL: 5 mg/kg-day
Mus musculus; reproduction developmental, duration: 17 days, F, CD1, Reproductive: Delayed mammary gland lactational differentiation in dams on PND 22
  LOAEL: 1 mg/kg-day
Mus musculus; reproduction developmental, duration: 17 days, F, Hepatic: Increased absolute and relative liver weight of dams on PND 22 at ?1 mg/kg/day
  NOAEL: 20 mg/kg-day
Mus musculus; reproduction developmental, duration: 17 days, M, CD1, 38% increase in absolute liver weight at ?1 mg/kg/day
  NOAEL: 1 mg/kg-day
Mus musculus; [3]
  LOAEL: 10 mg/kg-day
  NOAEL: 5 mg/kg-day
Mus musculus; short-term, duration: 14 days, M/F, CD1, Hepatic: 123-155% increase in absolute liver weight in 14 days at ?5.3 mg/kg/day
  NOAEL: 537 mg/kg-day
Mus musculus; [4]
  LOAEL: 10 mg/kg-day
  NOAEL: 3 mg/kg-day
Mus musculus; short-term, duration: 14 days, M, CD1, Hepatic: Decreased serum cholesterol levels at ?0.3 mg/kg/day
  NOAEL: 30 mg/kg-day
Mus musculus; [5]
  LOAEL: 15 mg/kg-day
  NOAEL: 7.5 mg/kg-day
Mus musculus; [6]
  LOAEL: 3.75 mg/kg-day
  NOAEL: 1.88 mg/kg-day
Mus musculus; short-term, duration: 21 days, M/F, CD1, Hepatic: 39-41% increase in absolute liver weight at ?5.4 mg/kg/day
  NOAEL: 5.4 mg/kg-day
Mus musculus; short-term, duration: 21 days, M, ICR
  NOAEL: 47 mg/kg-day
Mus musculus; [7]
  LOAEL: 18 mg/kg-day
  NOAEL: 2.6 mg/kg-day
Mus musculus; [8]
  LOAEL: 47 mg/kg-day
  NOAEL: 18 mg/kg-day
Mus musculus; short-term, duration: 28 days, F, CD1, 5/5 died before 4th week of study
  LOAEL: 58 mg/kg-day
Mus musculus; short-term, duration: 28 days, F, CD1, Body Weight: Males: final body weight 20% lower than controls / females: final body weight 25% lower than controls
  LOAEL: 5.8 mg/kg-day
Mus musculus; short-term, duration: 28 days, M/F, CD1, Hepatic: 3-fold or greater increased absolute and relative liver weight and hepatocellular hypertrophy at ?5.4 mg/kg/day
  NOAEL: 18 mg/kg-day
Mus musculus; short-term, duration: 28 days, M, CD1, Body Weight: Males: final body weight 20% lower than controls / females: final body weight 25% lower than controls
  LOAEL: 5.4 mg/kg-day
Mus musculus; short-term, duration: 28 days, M, CD1, Body Weight: Weight loss (86% of controls)
  LOAEL: 9.6 mg/kg-day
Mus musculus; short-term, duration: 28 days, M, CD1, Body Weight: Weight loss (86% of controls) + Immunotoxicological: Decreased response to sRBC, decreased number of splenic and thymic …
  NOAEL: 0.96 mg/kg-day
Mus musculus; short-term, duration: 28 days, M, CD1, Death: 4/5 died before end of 4th week
  LOAEL: 54 mg/kg-day
Mus musculus; short-term, duration: 28 days, M, CD1, Death: 5/5 died before 2nd week of study
  LOAEL: 180 mg/kg-day
Mus musculus; [9]
  LOAEL: 0.96 mg/kg-day
  NOAEL: 0.29 mg/kg-day
Mus musculus; short-term, duration: 28 days, M, CD1, Immunotoxicological: Decreased response to sRBC, decreased number of splenic and thymic lymphocytes
  LOAEL: 9.6 mg/kg-day
Rattus norvegicus; [10]
  LOEL: 50 mg/kg-day
  NOEL: 25 mg/kg-day
Rattus norvegicus; acute, duration: 1 days, injection, intraperitoneal, M, Sprague-Dawley, paw thickness (0.5 hr) + paw thickness (1 hr) + paw thickness (time 0)
  NOEL: 150 mg/kg-day
Rattus norvegicus; acute, duration: 1 days, injection, intraperitoneal, M, Sprague-Dawley, paw thickness (3 hrs, […] after PFOA) + paw thickness (4 hrs, 2.5 hrs after PFOA)
  LOEL: 150 mg/kg-day
Rattus norvegicus; acute, duration: 1 days, injection, intraperitoneal, M, Sprague-Dawley, paw thickness ([…]) + paw thickness (2 hr) + paw thickness (3 hr) + paw thickness (4 hr)
  LOEL: 150 mg/kg-day
Rattus norvegicus; acute, duration: 1 days, injection, intraperitoneal, M, Sprague-Dawley, paw thickness ([…], time of PFOA injection) + paw thickness (2 hrs, 0.5 hrs after PFOA)
  NOEL: 150 mg/kg-day
Rattus norvegicus; acute, duration: 1 days, injection, intraperitoneal, M, Sprague-Dawley, paw thickness (edema): 0 hr, after carrageenan + paw thickness (edema): 0 hr, before carrageenan + paw thickness (edema): 0.5 hr + paw …
  NOEL: 100 mg/kg-day
Rattus norvegicus; acute, duration: 1 days, injection, intraperitoneal, M, Sprague-Dawley, paw thickness (edema): […] + paw thickness (edema): 2 hr + paw thickness (edema): 2.5 hr + paw thickness (edema): 3 hr + paw thickness (…
  LOEL: 100 mg/kg-day
Rattus norvegicus; acute, duration: 24 hours, injection, intraperitoneal, M, Fischer 344, blood serum: TNF-alpha levels
  NOEL: 150 mg/kg-day
Rattus norvegicus; chronic, duration: 2 years, oral, diet, F, Sprague-Dawley, blood: eosinophils (12 months) + blood: eosinophils (24 months) + blood: eosinophils (3 months) + blood: eosinophils (6 months) + blood: …
  NOEL: 23.4 mg/kg-day
Rattus norvegicus; [11]
  LOEL: 23.4 mg/kg-day
  NOEL: 2.34 mg/kg-day
Rattus norvegicus; chronic, duration: 2 years, oral, diet, F, Sprague-Dawley, blood: lymphocytes (18 months) + blood: neutrophils (18 months) + spleen: spleen: absolute weight (2 years) + spleen: spleen: relative …
  LOEL: 2.34 mg/kg-day
Rattus norvegicus; chronic, duration: 2 years, oral, diet, M, Sprague-Dawley, blood: eosinophils (12 months) + blood: eosinophils (18 months) + blood: eosinophils (24 months) + blood: eosinophils (3 months) + blood: …
  NOEL: 23.4 mg/kg-day
Rattus norvegicus; chronic, duration: 2 years, oral, diet, M, Sprague-Dawley, blood: leukocyte count (12 months) + blood: leukocyte count (3 months) + blood: leukocyte count (6 months) + blood: lymphocytes (18 months…
  LOEL: 2.34 mg/kg-day
Rattus norvegicus; short-term, duration: 14 days, oral, gavage, M, Crj:CD, blood: NKR-P1A+ + CD3+ + CD4+ + CD45RA+ + CD8a+ + lymphocyte + monocyte + NKR-P1A+ + spleen: spleen: absolute weight + spleen: spleen: …
  NOEL: 50 mg/kg-day
Rattus norvegicus; [12]
  LOEL: 50 mg/kg-day
  NOEL: 5 mg/kg-day
Rattus norvegicus; [13]
  LOEL: 5 mg/kg-day
  NOEL: 0.5 mg/kg-day
Rattus norvegicus; short-term, duration: 24 days, oral, gavage, M, Crl:CD(SD) BR, IgM antibody titer (SRBC) + mean serum corticosterone + spleen: incidence of spleen hematopoiesis + spleen: spleen: absolute weight + spleen…
  NOEL: 30 mg/kg-day
Rattus norvegicus; short-term, duration: 24 days, oral, gavage, M, Crl:CD(SD) BR, thymus: thymus: relative weight
  LOEL: 30 mg/kg-day
Rattus norvegicus; short-term, duration: 28 days, oral, gavage, F, Sprague-Dawley, basophils + eosinophils + lymphocytes + monocytes + neutrophils + spleen: spleen: absolute weight + spleen: spleen: relative weight + thymus…
  NOEL: 30 mg/kg-day
Rattus norvegicus; short-term, duration: 28 days, oral, gavage, F, Sprague-Dawley, basophils + eosinophils + lymphocytes + monocytes + spleen: spleen: absolute weight + spleen: spleen: relative weight + thymus: thymus: …
  NOEL: 30 mg/kg-day
Rattus norvegicus; short-term, duration: 28 days, oral, gavage, F, Sprague-Dawley, neutrophils
  LOEL: 30 mg/kg-day
Rattus norvegicus; short-term, duration: 28 days, oral, gavage, M, Sprague-Dawley, basophils + eosinophils + lymphocytes + monocytes + neutrophils + spleen: spleen: absolute weight + spleen: spleen: relative weight + thymus…
  NOEL: 30 mg/kg-day
Rattus norvegicus; short-term, duration: 28 days, oral, gavage, M, Sprague-Dawley, basophils + eosinophils + lymphocytes + neutrophils + spleen: spleen: absolute weight + spleen: spleen: relative weight + thymus: thymus: …
  NOEL: 30 mg/kg-day
Rattus norvegicus; short-term, duration: 28 days, oral, gavage, M, Sprague-Dawley, monocytes + thymus: thymus: absolute weight
  LOEL: 30 mg/kg-day
Rattus norvegicus; short-term, duration: 29 days, oral, gavage, M, Crl:CD(SD) BR, IgM antibody titer (SRBC) + mean serum corticosterone + spleen: incidence of spleen hematopoiesis + spleen: spleen: relative weight + spleen…
  NOEL: 30 mg/kg-day
Rattus norvegicus; subchronic, duration: 90 days, oral, diet, F, blood: basophils (1 month) + blood: basophils (3 months) + blood: eosinophils (1 month) + blood: eosinophils (3 months) + blood: leukocytes…
  NOEL: 96 mg/kg-day
Rattus norvegicus; subchronic, duration: 90 days, oral, diet, M, blood: basophils (1 month) + blood: basophils (3 months) + blood: eosinophils (1 month) + blood: eosinophils (3 months) + blood: leukocytes…
  NOEL: 96 mg/kg-day
Rattus norvegicus; [14]
  LOEL: 28.8 mg/kg-day
  NOEL: 9.6 mg/kg-day
Rattus norvegicus; [15]
  LOEL: 2.88 mg/kg-day
  NOEL: 0.96 mg/kg-day
